Measured values published in US20020045268A1, “MEASURING ANALYTES WITH METAL-LIGAND COMPLEX PROBES” (priority 1997, published 2002).
Entries after “also recorded” stand apart in the source; their conditions may differ.

How the values were obtained:
Format in all cases: physicochemical
[1] = pH-dependent fluorescence emission spectra and intensities in buffers
Description: (§1) Ru(bpy)2 (deabpy) (PF6)2 solutions at different pH value were prepared by dissolving equal amount of aqueous Ru(bpy)2 (deabpy) (PF6)2 in different buffer solutions. From pH 2 to pH 4.7, we used citrate buffer; from pH 4.8 to pH 6.3 we used acetate buffer; from pH 6.4 to pH 7.8 we used phosphate buffer; from pH 7.8 to pH 9.0 we used tris buffer, from pH 9.2 to pH 11 we used carbonate/bicarbonate buffer, from pH 11 to pH 12 we used dibasic sodium phosphate/sodium hydroxide buffer. Unless stated otherwise the buffer concentrations were 20 mM and contained 0.1 M potassium chloride to maintain ionic strength.
The fluorescence emission spectra were measured using Aminco Bowman Series AB2 Luminescence Spectrometer with the excitation wavelength of 414 nm. […] The emission intensity ratios (620 nm/650 nm) of the different sample were also recorded.

[2] = pH-dependent absorption at 450 nm (ground state pKa); details: from changes in absorption at 450 nm
Description: Chemicals and solvents were purchased from Aldrich and used without further purification. Absorption spectra were measured using a Perkin Elmer lambda 6 UV/Vis spectrophotometer. Observed were two isosbestic points at 414 nm and 475 nm. The absorbance at 450 nm of different samples were measured to obtain the ground state pKa.
as §1

[3] = frequency-domain intensity decay (lifetime) measurements, single and global multi-exponential analysis
From the text: For the phase/modulation measurements (FIGS. 6-9), an air-cooled Argon ion laser (output at 488 nm) was used as the excitation light source, and the modulation frequency was set at 700 kHz. On the emission side, a long-wave pass filter was used to collect the fluorescence with wavelength longer than 600 nm. The reference solution used here was an aqueous solution of Texas Red with a reference lifetime of 4 ns. For the lifetime measurements, we used the same instrumentation and reference solution, and 23 different modulation frequencies ranging from 11 kHz to 2 MHZ.
Single and multi-exponential intensity decays were recovered from the multi-frequency data as described previously [see, Construction and Performance of a Variable-Frequency Phase-Modulation Fluorometer (1985). Lakowicz, J. R. and B. P. Maliwal. Biophys. Chem., 21:61-78; Frequency-Domain Fluorescence Spectroscopy (1991) in Topics in Fluorescence Spectroscopy, Vol. 1: Techniques, (Lakowicz, J. R., Ed.). Plenum Press, New York, pp. 293-355]. The data were analyzed globally in terms of the multi-exponential model [formula]
where Ik(t) are the intensity decays at each pH (k) value, Ti are the decay times and αik are the amplitudes. For the global analysis we assumed that the αik values would depend on pH, but that the two lifetimes would be independent of pH. The goodness-of-fit was judged by the usual XR^2 criterion with assumed uncertainties in phase δp=0.2° and modulation δm=0.005.

[4] = pH-dependent intensity, phase and modulation data of FIG. 15 and emission spectrum of the dcbpy complex; details: relative to Ru(bpy)3
From the text: FIG. 15 graphically depicts data in connection with the metal-ligand complex [Ru(bpy)2 (dcbpy)]Cl4 showing pH-dependent intensity, phase and modulation data.
The emission shift to longer wavelengths at low pH (FIG. 2) seems to be generally understandable in terms of the electronic properties of the excited MLCs. The long wavelength emission is thought to result from a metal-to-ligand charge transfer (MLCT) state in which an electron is donated from Ru to the ligand. The protonated form of deabpy is probably a better electron acceptor, lowering the energy of the MLCT state, shifting the emission to longer wavelengths and thereby decreasing the lifetime. […] Terpetschnig, E., H. Szmacinski, H. Malak and J. R. Lakowicz. Biophys. J., 68:342-350; Fluorescence Polarization Immunoassay of a High Molecular Weight Antigen Based on a Long-Lifetime Ru-Ligand Complex (1995). Terpetschnig, E., H. Szmacinski and J. R. Lakowicz. Anal. Biochem., 227:140-147].
The dcbpy ligand is probably a better electron acceptor than bpy. […] It could be used at a pH in the range of pH 2 to 5.

## CCN(CC)Cc1ccnc(-c2cc(CN(CC)CC)ccn2)c1.[Ru+2].c1ccc(-c2ccccn2)nc1.c1ccc(-c2ccccn2)nc1 [[Ru(deabpy)(bpy)2]^2+]
[1]; 20, 50 and 100 mM phosphate buffer
  dependence of apparent pKa on ionic strength / buffer concentration: not found to be dependent on ionic strength; also recorded: same apparent pKa values
[1]; acidic sample (low pH), excitation 414 nm
  emission maximum: 650 nm
[1]; as pH increases from 2.52 to 11.8
  increase of emission spectrum: about 3 fold
[1]; basic sample, excitation 414 nm
  emission maximum: 620 nm
[1]; pH-dependent fluorescence intensities, excitation 414 nm
  apparent pKa observed by fluorescence: ~7.5
[2]
  ground state pKa: 7.14
[3]; high pH
  mean decay time: ~390 ns
[3]; low pH, protonated amino groups
  mean decay time: ~240 ns
[3]; pH 2.4
  α1, amplitude of 235 ns component, global analysis: 0.964
  α2, amplitude of 380 ns component, global analysis: 0.036
  τ2 (ns), global analysis: 380 ns
  τi (ns), global analysis: 235 ns
[3]; pH 2.40
  τ(ns), single decay time analysis: 236 ns
[3]; pH 5.8
  α1, amplitude of 235 ns component, global analysis: 0.893
  α2, amplitude of 380 ns component, global analysis: 0.107
  τ2 (ns), global analysis: 380 ns
  τi (ns), global analysis: 235 ns
[3]; pH 5.89
  τ(ns), single decay time analysis: 252 ns
[3]; pH 6.91
  α1, amplitude of 235 ns component, global analysis: 0.828
  α2, amplitude of 380 ns component, global analysis: 0.172
  τ2 (ns), global analysis: 380 ns
  τ(ns), single decay time analysis: 262 ns
  τi (ns), global analysis: 235 ns
[3]; pH 7.45
  α1, amplitude of 235 ns component, global analysis: 0.687
  α2, amplitude of 380 ns component, global analysis: 0.313
  τ2 (ns), global analysis: 380 ns
  τ(ns), single decay time analysis: 284 ns
  τi (ns), global analysis: 235 ns
[3]; pH 8.02
  α1, amplitude of 235 ns component, global analysis: 0.380
  α2, amplitude of 380 ns component, global analysis: 0.620
  τ2 (ns), global analysis: 380 ns
  τ(ns), single decay time analysis: 327 ns
  τi (ns), global analysis: 235 ns
[3]; pH 13.5
  α1, amplitude of 235 ns component, global analysis: 0
  α2, amplitude of 380 ns component, global analysis: 1.0
  τ2 (ns), global analysis: 380 ns
  τ(ns), single decay time analysis: 392 ns
  τi (ns), global analysis: 235 ns
[3]; protonated form
  decay time, global analysis: 235 ns
[3]; unprotonated form
  decay time, global analysis: 380 ns

## O=C(O)c1ccnc(-c2cc(C(=O)O)ccn2)c1.[Ru+2].c1ccc(-c2ccccn2)nc1.c1ccc(-c2ccccn2)nc1 [[Ru(dcbpy)(bpy)2]^2+]
[4]
  emission spectrum shift: red shift
